{"source": "patent US20110269231A1", "about": "“PROTEOGLYCAN-BINDING PEPTIDES THAT MODULATE STEM CELL BEHAVIOR” (WISCONSIN ALUMNI RESEARCH FOUNDATION, priority 2010, published 2011)", "key": {"hMSCs [1]": {"system": "hMSCs", "assay": "hMSC adhesion on RGESP- and RGDSP-presenting SAMs", "assay_type": "cell-based, human", "details": "for hMSC attachment (number per unit area): RGDSP=0.0001, 0.001 or 0.01 vs RGESP alone, 12 hrs attachment", "experimental": "(§1) To maintain multipotency, hMSCs were expanded at low density on tissue culture treated polystyrene plates. At passage 6, cells were harvested from the plate, suspended in medium supplemented with 10% fetal bovine serum, and counted using a hemacytometer. Cells were collected as a pellet by centrifugation at 1100 rpm for 5 minutes, the media was decanted off of the pellet, and the cells were suspended in fresh αMEM at a density of 20,000 cells/250 μL. SAM preparation and peptide conjugation were performed using the protocols described above Immediately after peptide conjugation, SAMs were placed into 1 mL of 1× PBS (pH 7.4) in a 12-well tissue culture plate to prevent degradation of the monolayer due to air oxidation. PBS was aspirated from the wells and replaced with 1.25 mL of αMEM, followed by addition of 250 μL of the cell suspension directly over the SAM substrate in each well. Plates were then gently rocked for 10 seconds to evenly distribute cells over the substrate surface. Substrates were then incubated for a specified time frame (12 hrs for RGESP/RGDSP SAMs, 4 hrs for RGDSP/TYRSRKY SAM in a humid environment at 37° C., 5% CO2 to allow hMSC attachment. At the end of the attachment period, the hMSC growth media was aspirated from the well and the substrates were gently washed with sterile 1× PBS to remove any loosely bound cells. The 1× PBS solution was then replaced with fresh medium. Brightfield photomicrographs of cells were then collected using an Olympus IX51 inverted microscope.\n(§2) hMSCs were seeded on the SAMs as described previously. After washing away loosely bound cells using 1× PBS, cytoskeletal immunostaining of hMSCs was performed by following the protocol supplied by the manufacturer. Briefly, a 4% paraformaldehyde solution in 1× PBS was added to the wells for 15 minutes to fix the cells, followed by a 5 minute incubation in a 1× PBS solution containing 0.05% Tween-20 to permeabilize the cells. […] After blocking, a 1× PBS solution containing an anti-Vinculin primary antibody was added to each well and allowed to incubate at room temperature for 60 minutes. The wells were then washed gently three times using a 1× PBS solution containing 0.1 wt % bovine serum albumin. Immediately after washing, a 1× PBS solution containing a fluorescein-tagged […] secondary antibody and a TRITC-tagged anti-Phalloidin antibody was added to each well and allowed to incubate at room temperature for 45 minutes. Substrates were then washed using the method described previously. Cytoskeletal staining was analyzed using an Olympus IX51 inverted epifluorescent microscope equipped with FITC and TRITC filter cube sets."}, "hMSCs [2]": {"system": "hMSCs", "assay": "hMSC proliferation on KRTGQYKL-SAMs in the presence of FBS and PD 173074", "assay_type": "cell-based, human", "details": "200 nM PD 173074, 10% FBS; FIG. 11", "experimental": "Proliferation of hMSCs cultured on KRTGQYKL-SAMs in medium supplemented with FBS and PD 173074 was determined PD 173074 is a soluble inhibitor of FGF-2 and FGF-4 cognate receptors FGF receptor-1 and -3. hMSCs were cultured on SAMs presenting 2% RGDSP (SEQ ID NO: 8) and either 2% KRTGQYL (SEQ ID NO: 1) or TYRKKGLQ (SEQ ID NO: 9) in medium supplemented with 200 nM PD 173074 and 10% FBS.\nhMSCs were expanded at low density on tissue culture treated polystyrene plates using the method described previously by Sotiropoulou et al. to maintain […] (Sotiropoulou et al., “Characterization of the optimal culture conditions for clinical scale production of human mesenchymal stem cells,” Stem Cells, 24:462 (2006)). At passage 6, cells were harvested from the plate, suspended in medium supplemented with 10% fetal bovine serum, and counted using a hemacytometer. Cells were collected as a pellet by centrifugation at 1100 rpm for 5 minutes, the media was decanted off of the pellet, and the cells were suspended in αMEM supplemented with 10% FBS at a density of 20,000 cells/250 μL. […] The total number of cells per viewing area was counted manually for 3 samples per condition."}, "hMSCs [3]": {"system": "hMSCs", "assay": "hMSC projected cell area on SAMs presenting RGDSP and TYRSRKY", "assay_type": "cell-based, human", "experimental": "as §1, §2"}, "[4]": {"system": "human umbilical vein endothelial cells (HUVECs)", "assay": "HUVEC proliferation versus KRTGQYKL surface density and FGF-2 concentration", "assay_type": "cell-based", "details": "2% RGDSP, 10% FBS", "experimental": "Human umbilical vein endothelial cells (HUVECs) as a model cell type were used to investigate the correlation between the surface density of bound heparin PGs, the concentration of soluble FGF-2, and the extent of up-regulation of FGF-mediated cell proliferation.\nHUVECs were cultured according to the protocol supplied by the manufacturer. Sub-confluent cells were harvested from the plate, suspended in M199 supplemented with 10% FBS, and counted using a hemacytometer. Cells were collected as a pellet by centrifugation at 1100 rpm for 5 minutes, the media was decanted off of the pellet, and the cells were suspended in fresh serum-supplemented M199 at a density of 20,000 cells/250 μL. SAMs presenting 2% RGDSP (SEQ ID NO: 8) and various densities of KRTGQYKL (SEQ ID NO: 1) were prepared by incubating NHS-activated SAMs in 1× PBS solutions containing 125 μM RGDSP (SEQ ID NO: 8), and various molar ratios of KRTGQYKL (SEQ ID NO: 1) and TYRKKGLQ (SEQ ID NO: 9) at a total concentration of 125 μM Immediately after peptide conjugation, HUVECs were seeded on the SAM substrates at a density of 10,000 cells/cm^2 in M199 supplemented with 10% FBS. […] Brightfield photomicrographs (40× mag) of each substrate were collected on an Olympus IX51 inverted epifluorescent microscope at t=0, 24, 48, and 72 hrs, and the total number of cells per viewing area was counted manually."}, "[5]": {"assay": "Binding of synthetic KRT peptide to hydroxyapatite (micro-BCA depletion)", "details": "50 μM peptide, 1 mg hydroxyapatite, 30 minutes at 37° C.", "experimental": "A 50 μM peptide solution containing the synthetic KRT peptide, KRTGQYKLGGGAAAA(Gla)PRR(Gla)VA(Gla)L (SEQ ID NO: 12), was incubated with 1 mg of hydroxyapatite particles for 30 minutes at 37° C. After incubation, the concentration of peptide in solution was determined using a micro-BCA assay (Pierce) as a measure of the depletion of the peptide from solution due to hydroxyapatite binding."}, "recombinant human FGF-2": {"target": "T1, recombinant human FGF-2 (human, UniProt P09038 135-288, limits assumed)", "T1 construct": "also called rhFGF-2; fibroblast growth factor-2", "T1 sequence (P09038 135-288 limits assumed)": "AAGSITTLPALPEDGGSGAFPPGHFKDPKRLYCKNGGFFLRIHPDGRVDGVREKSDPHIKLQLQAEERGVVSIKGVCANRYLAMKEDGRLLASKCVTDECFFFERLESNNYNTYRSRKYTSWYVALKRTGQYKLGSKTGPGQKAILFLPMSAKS", "assay": "PM-IRRAS of 1% KRTGQYKL-SAMs after 20 min in 1x PBS with FGF-2", "experimental": "PM-IRRAS was used to characterize FGF-2 binding onto […]-SAMs. 1% […] SAMs were incubated in a lx PBS solution (pH 7.4) containing 10 μg/mL recombinant human FGF-2 for 20 minutes and analyzed using PM-IRRAS."}, "[6]": {"target": "T2, alpha-5 beta-1 integrins (on human mesenchymal stem cells) (human, UniProt P08648 42-1049; P05556 21-798)", "T2 construct": "whole, on cells; Endogenous integrin on hMSCs; also called hMSC integrin receptors", "T2 sequence (P08648 42-1049, chain 1 of 2)": "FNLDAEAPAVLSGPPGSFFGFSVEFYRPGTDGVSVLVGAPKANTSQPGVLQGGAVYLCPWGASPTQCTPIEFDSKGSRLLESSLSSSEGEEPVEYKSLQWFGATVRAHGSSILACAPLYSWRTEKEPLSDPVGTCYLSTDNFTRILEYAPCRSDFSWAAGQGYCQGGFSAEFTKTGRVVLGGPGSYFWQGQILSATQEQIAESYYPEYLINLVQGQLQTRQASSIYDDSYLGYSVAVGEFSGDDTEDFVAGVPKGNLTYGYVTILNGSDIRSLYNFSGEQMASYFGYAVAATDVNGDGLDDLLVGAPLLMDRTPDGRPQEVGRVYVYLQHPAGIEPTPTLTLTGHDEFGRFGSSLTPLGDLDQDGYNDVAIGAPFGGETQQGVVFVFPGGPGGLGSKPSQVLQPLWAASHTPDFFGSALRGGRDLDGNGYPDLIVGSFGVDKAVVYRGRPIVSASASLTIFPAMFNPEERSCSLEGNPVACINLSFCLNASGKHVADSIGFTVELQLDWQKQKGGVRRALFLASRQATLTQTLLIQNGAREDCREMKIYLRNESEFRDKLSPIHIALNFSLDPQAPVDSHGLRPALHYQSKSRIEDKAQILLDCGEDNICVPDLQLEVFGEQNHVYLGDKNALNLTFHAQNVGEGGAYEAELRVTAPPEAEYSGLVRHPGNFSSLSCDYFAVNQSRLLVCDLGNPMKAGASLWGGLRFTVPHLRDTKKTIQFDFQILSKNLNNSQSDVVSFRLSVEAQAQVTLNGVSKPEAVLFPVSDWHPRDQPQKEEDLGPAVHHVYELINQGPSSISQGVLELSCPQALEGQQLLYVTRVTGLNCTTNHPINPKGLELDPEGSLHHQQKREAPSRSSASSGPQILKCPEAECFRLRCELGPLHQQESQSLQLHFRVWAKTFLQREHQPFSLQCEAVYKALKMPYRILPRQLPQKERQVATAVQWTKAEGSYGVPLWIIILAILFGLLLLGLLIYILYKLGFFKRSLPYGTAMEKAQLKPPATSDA", "T2 sequence (P05556 21-798, chain 2 of 2)": "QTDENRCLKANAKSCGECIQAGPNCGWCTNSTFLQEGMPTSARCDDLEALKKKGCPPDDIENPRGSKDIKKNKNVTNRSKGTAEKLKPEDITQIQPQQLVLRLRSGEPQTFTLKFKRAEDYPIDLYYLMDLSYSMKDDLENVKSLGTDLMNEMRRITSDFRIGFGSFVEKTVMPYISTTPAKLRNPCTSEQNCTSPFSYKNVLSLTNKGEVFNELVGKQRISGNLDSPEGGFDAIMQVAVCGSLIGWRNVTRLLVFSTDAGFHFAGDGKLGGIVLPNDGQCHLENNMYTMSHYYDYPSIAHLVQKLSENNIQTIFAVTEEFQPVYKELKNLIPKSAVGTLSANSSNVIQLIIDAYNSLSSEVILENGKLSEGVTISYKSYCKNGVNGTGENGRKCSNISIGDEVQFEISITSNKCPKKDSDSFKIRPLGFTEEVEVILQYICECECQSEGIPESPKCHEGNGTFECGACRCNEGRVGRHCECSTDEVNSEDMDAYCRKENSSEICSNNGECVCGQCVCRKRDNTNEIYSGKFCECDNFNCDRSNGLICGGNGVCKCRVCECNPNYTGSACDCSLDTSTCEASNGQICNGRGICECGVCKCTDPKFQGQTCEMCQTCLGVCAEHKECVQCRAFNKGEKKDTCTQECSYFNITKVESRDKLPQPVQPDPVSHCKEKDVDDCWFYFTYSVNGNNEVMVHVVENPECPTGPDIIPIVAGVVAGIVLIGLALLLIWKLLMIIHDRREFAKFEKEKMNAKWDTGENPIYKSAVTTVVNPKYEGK", "assay": "hMSCs cultured on RGDSP-presenting SAMs in osteogenic induction medium (cell area, cell number, alkaline phosphatase)", "experimental": "SAMs were prepared as previously described. Low passage number hMSCs were harvested from polystyrene plates and seeded on SAMs presenting RGDSP (SEQ ID NO: 8), RGDSP(SEQ ID NO: 8)/[…](SEQ ID NO: 1), or RGDSP(SEQ ID NO: 8)/TYRSRKY(SEQ ID NO: 2), at specified surface densities at a cell density of 2500 cells/cm². Cells were cultured in αMEM basal medium supplemented with 10% FBS, 50 μg/mL 2-phosphate ascorbic acid, 10 mM β-glycerophosphate, and 100 nM dexamethasone for 7 days. Brightfield images of cells were collected to measure cell projected area and quantification of cell number as a function of time. At the end of the 7-day culture period, alkaline phosphatase activity was analyzed using the SensoLyte FDP alkaline phosphatase assay kid (Anaspec, Fremont, Calif.)."}}, "note": "Square brackets hold non-standard residues; d marks the D form. Ends that are not written are not given here. Gla = N[C@@H](CC(C(=O)O)C(=O)O)C(=O)O"}
{"molecule": "RGESP (not fully specified (C-terminus)) [amine-terminated peptide co-immobilized with RGDSP on SAMs, reference compound]", "values": [{"measurement": "influence of co-immobilized peptide on RGDSP-dependent hMSC adhesion", "setting": "hMSCs [1]", "value": "did not influence RGDSP-dependent hMSC adhesion"}, {"measurement": "hMSC attachment (number per unit area)", "setting": "hMSCs [1]", "value": "absent"}]}
{"molecule": "CCN(CC)CCCCNc1ncc2cc(-c3cc(OC)cc(OC)c3)c(NC(=O)NC(C)(C)C)nc2n1", "note": "[PD 173074]", "values": [{"measurement": "increased proliferation of hMSCs on KRTGQYKL SAMs", "setting": "hMSCs [2]", "value": "completely abolished"}]}
{"molecule": "RGDSP", "values": [{"measurement": "number of focal adhesion complexes versus RGDSP surface density", "setting": "hMSCs [1]; FIGS. 36 and 38", "value": "direct correlation"}, {"measurement": "hMSC attachment (number per unit area)", "setting": "hMSCs [1]", "value": "significant number of hMSCs were present"}, {"measurement": "hMSC morphology", "setting": "hMSCs [1]; higher RGDSP densities (RGDSP=0.001 or 0.01)", "value": "more well-spread morphology"}, {"measurement": "hMSC morphology", "setting": "hMSCs [1]; low density of RGDSP (RGDSP=0.0001)", "value": "polarized, spindle-shaped morphology"}]}
{"molecule": "TYRSRKY", "values": [{"measurement": "hMSC morphology (projected cell area)", "setting": "hMSCs [3]; 0.1% RGDSP, 0.1-1% TYRSRKY, 10% FBS", "value": "rounded morphology"}, {"measurement": "hMSC morphology (projected cell area)", "setting": "hMSCs [3]; 0.1% RGDSP, high TYRSRKY density, absence of serum", "value": "well-spread morphology"}, {"measurement": "hMSC morphology (projected cell area)", "setting": "hMSCs [3]; 0.1% RGDSP, low TYRSRKY surface density, absence of serum", "value": "rounded hMSCs morphology"}, {"measurement": "hMSC morphology (projected cell area)", "setting": "hMSCs [3]; 1.0% RGDSP, 0.1-1.0% TYRSRKY, absence of serum", "value": "well-spread hMSC morphology"}, {"measurement": "hMSC spreading", "setting": "hMSCs [3]; 1.0% RGDSP, TYRSRKY>0.5%, 10% FBS", "value": "decrease in hMSC spreading"}, {"measurement": "hMSC morphology (projected cell area)", "setting": "hMSCs [3]; SAMs presenting 0.1-1.0% TYRSRKY, no RGDSP, presence or absence of serum", "value": "rounded morphology"}]}
{"molecule": "KRTGQYKL", "values": [{"measurement": "HUVEC number", "setting": "[4]; surface density of 2% KRTGQYKL, 1 ng/mL FGF-2", "value": "significant increase"}, {"measurement": "HUVEC number", "setting": "[4]; surface density of KRTGQYKL>0.1%, 5 ng/mL FGF-2, by 72 hours", "value": "significant increase"}]}
{"molecule": "KRTGQYKLGGGAAAA(Gla)PRR(Gla)VA(Gla)L (KRTGQYKLGGGAAAA[Gla]PRR[Gla]VA[Gla]L; not fully specified (C-terminus); printed as KRTGQYKLGGGAAAA(Gla)PRR(Gla)VA(Gla)L) [KRT peptide]", "values": [{"measurement": "peptide bound by hydroxyapatite particles", "setting": "[5]", "value": 66.08, "unit": "nmol/m^2"}]}
{"molecule": "KRTGQYKL-NH2 (also: immobilized on oligo(ethylene glycol) alkanethiolate SAM on gold, Made by Fmoc solid phase synthesis on Rink amide MBHA resin)", "note": "[KRTGQYKL synthetic heparin-binding peptide (SEQ ID NO: 1), immobilized on a self-assembled monolayer]", "values": [{"measurement": "binding result", "setting": "recombinant human FGF-2", "value": "no binding (tested: 10 µg/mL recombinant human FGF-2)"}]}
{"molecule": "RGDSP-NH2 (also: immobilized on SAM on gold, Made by Fmoc solid phase synthesis on Rink amide MBHA resin and conjugated to a SAM on gold; also called RGDSP SAMs; cell-adhesion peptide)", "values": [{"measurement": "binding result", "setting": "[6]", "value": "binds"}]}
